In ChEMBL document CHEMBL4049382, “4-Hydroxyphenylpyruvate Dioxygenase and Its Inhibition in Plants and Animals: Small Molecules as Herbicides and Agents for the Treatment of Human Inherited Diseases” (J Med Chem, 2017):
Blank lines part the entries; values can stand above or below the molecule they belong to.

How the values were obtained:
[1] = target: T1, 4-hydroxyphenylpyruvate dioxygenase (Arabidopsis thaliana, UniProt P93836); experiment: Inhibition of Arabidopsis thaliana HPPD expressed in Escherichia coli BL21(DE3) using HPPA as substrate after 10 mins by UV-Vis spectrometric analysis
T1 sequence (P93836 whole entry): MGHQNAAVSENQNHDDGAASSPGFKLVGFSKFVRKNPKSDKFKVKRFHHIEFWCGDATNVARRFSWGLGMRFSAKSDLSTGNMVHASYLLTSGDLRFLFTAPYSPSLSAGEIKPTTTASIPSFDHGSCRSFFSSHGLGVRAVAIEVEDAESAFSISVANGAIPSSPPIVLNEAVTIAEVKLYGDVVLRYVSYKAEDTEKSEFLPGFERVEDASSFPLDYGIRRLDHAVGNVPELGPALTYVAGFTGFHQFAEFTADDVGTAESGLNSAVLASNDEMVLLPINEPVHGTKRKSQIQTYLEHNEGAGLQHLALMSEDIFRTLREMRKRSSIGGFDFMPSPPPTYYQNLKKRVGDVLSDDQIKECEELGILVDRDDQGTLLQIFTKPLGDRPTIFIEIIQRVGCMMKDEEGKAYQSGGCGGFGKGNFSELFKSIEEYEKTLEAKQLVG

[2] = target: T1, 4-hydroxyphenylpyruvate dioxygenase; experiment: Inhibition of Arabidopsis thaliana HPPD expressed in Escherichia coli JM109 using HPPA as substrate after 10 mins
[3] = tested on: Rattus norvegicus; experiment: In vivo inhibition of Tyr hydroxylase in rat assessed as tyr concentration in plasma by colorimetric assay (reference value: 0.1 mM); assay type: functional
[4] = tested on: Homo sapiens; experiment: In vivo inhibition of HPPD in human assessed dissociation half life for enzyme-compound complex in plasma; assay type: functional, organism-based
[5] = tested on: Homo sapiens; experiment: Effect on tyrosine level in plasma in human at 1 mg/kg, po under uncontrolled diet (reference value: 0.076 mM); assay type: ADME, organism-based; conditions: in vivo
[6] = target: 4-hydroxyphenylpyruvate dioxygenase (Rattus norvegicus) (UniProt P32755); conditions: Wistar, 50 nM
Description: Inhibition of Wistar rat liver HPPD using 4-Hydroxyphenylpyruvate as substrate assessed as reduction in oxygen consumption at 50 nM preincubated for 3 mins followed by substrate addition measured after 30 secs

[7] = species on record: Rattus norvegicus
Description: In vivo inhibition of HPPD in rat assessed dissociation half life for enzyme-compound complex in plasma

[8] = Half life in human plasma at 1 mg/kg
[9] = In vitro half life of rat HPPD complex
[10] = tested on: Homo sapiens; experiment: Effect on tyrosine level in plasma in human at 1 mg/kg, po up to 120 hrs (reference value: 0.076 mM); conditions: in vivo
[11] = target: T2, 4-hydroxyphenylpyruvate dioxygenase (Sus scrofa, UniProt Q02110); experiment: Inhibition of pig liver HPPD using 4-hydroxyphenylpyruvic acid as substrate after 15 mins by spectrophotometric analysis
[12] = target: T3, 4-hydroxyphenylpyruvate dioxygenase (Arabidopsis thaliana) (UniProt P93836); experiment: Inhibition of Arabidopsis thaliana HPPD
T3 sequence (whole entry): T1 sequence (P93836 whole entry)

[13] = target: T4, 4-hydroxyphenylpyruvate dioxygenase (Daucus carota, UniProt O23920); experiment: Inhibition of carrot HPPD expressed in Escherichia coli JM105 using HPPA as substrate
T4 sequence (O23920 whole entry): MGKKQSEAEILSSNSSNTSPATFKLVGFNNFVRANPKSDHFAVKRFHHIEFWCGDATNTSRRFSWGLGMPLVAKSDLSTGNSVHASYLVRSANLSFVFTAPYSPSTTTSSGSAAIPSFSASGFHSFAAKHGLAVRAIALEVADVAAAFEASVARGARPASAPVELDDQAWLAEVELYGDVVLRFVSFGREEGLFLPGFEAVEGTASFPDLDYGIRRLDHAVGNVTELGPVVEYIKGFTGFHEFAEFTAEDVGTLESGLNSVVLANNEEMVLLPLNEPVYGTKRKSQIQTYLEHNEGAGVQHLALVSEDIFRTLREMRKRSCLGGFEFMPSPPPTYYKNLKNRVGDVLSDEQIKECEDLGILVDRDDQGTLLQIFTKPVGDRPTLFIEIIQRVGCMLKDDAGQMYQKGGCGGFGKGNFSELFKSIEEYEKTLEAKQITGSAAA

[14] = target: T5, 4-hydroxyphenylpyruvate dioxygenase (Daucus carota) (UniProt O23920); experiment: Inhibition of carrot HPPD expressed in Escherichia coli JM105 assessed as dissociation half life using HPPA as substrate
T5 sequence (whole entry): T4 sequence (O23920 whole entry)

[15] = tested on: Rattus norvegicus; experiment: In vivo inhibition of HPPD activity in rat assessed as micoL of O2 consumed in liver cytosol at 0.1 to 5 mg/kg/day measured after 90 days (reference value: 91%); assay type: functional
[16] = tested on: Rattus norvegicus; experiment: In vivo inhibition of TAT activity in rat assessed as 4-hydroxyphenylpyruvate formed in liver cytosol at 50 to 100 mg/kg/day measured after 90 days relative to control; assay type: functional
[17] = tested on: Rattus norvegicus; experiment: In vivo inhibition of HGD activity in rat assessed as micoL of O2 consumed in liver cytosol at 5 to 100 mg/kg/day measured after 90 days relative to control; assay type: functional
[18] = species on record: Homo sapiens; experiment: Inhibition of TAT in human Fibroblasts assessed as reduction in tyrosine level at 0.1 uM after 72 hrs by LC-MS/MS analysis relative to control
[19] = tested on: Fibroblast; experiment: Cytotoxicity against human Fibroblast assessed as reduction in cell viability after 24 to 144 hrs by MTT assay
[20] = target: T1, 4-hydroxyphenylpyruvate dioxygenase; experiment: Inhibition of Arabidopsis thaliana HPPD expressed in Escherichia coli JM105 using HPPA as substrate after preincubated for 15 min followed by substrate addition by HPLC analysis
[21] = tested on: Plasmodium falciparum; experiment: Antiparasitic activity against chloroquine-sensitive Plasmodium falciparum; assay type: functional
[22] = tested on: Plasmodium falciparum; experiment: Antiparasitic activity against chloroquine-resistant Plasmodium falciparum; assay type: functional
[23] = species on record: Homo sapiens; experiment: Inhibition of TAT in human Fibroblasts assessed as reduction in tyrosine level at 10 uM after 72 hrs by LC-MS/MS analysis relative to control
[24] = tested on: Homo sapiens; experiment: In vivo inhibition of HPPD in human assessed as blood tyrosine levels at 4 mg/kg measured up to 120 hrs; assay type: functional
[25] = Half life in human plasma at 1 mg/kg administered as solution; assay type: ADME, organism-based
[26] = Half life in human plasma at 1 mg/kg administered as capsule; assay type: ADME, organism-based; conditions: po
[27] = target: T1, 4-hydroxyphenylpyruvate dioxygenase; experiment: Inhibition of Arabidopsis thaliana HPPD expressed in Escherichia coli JM105 using 4-HPP as substrate preincubated for 15 mins followed by substrate addition measured after 15 mins by HPLC analysis
[28] = target: T2, 4-hydroxyphenylpyruvate dioxygenase; experiment: Inhibition of pig liver HPPD using HPP as substrate after 15 mins

T2 sequence (Q02110 whole entry): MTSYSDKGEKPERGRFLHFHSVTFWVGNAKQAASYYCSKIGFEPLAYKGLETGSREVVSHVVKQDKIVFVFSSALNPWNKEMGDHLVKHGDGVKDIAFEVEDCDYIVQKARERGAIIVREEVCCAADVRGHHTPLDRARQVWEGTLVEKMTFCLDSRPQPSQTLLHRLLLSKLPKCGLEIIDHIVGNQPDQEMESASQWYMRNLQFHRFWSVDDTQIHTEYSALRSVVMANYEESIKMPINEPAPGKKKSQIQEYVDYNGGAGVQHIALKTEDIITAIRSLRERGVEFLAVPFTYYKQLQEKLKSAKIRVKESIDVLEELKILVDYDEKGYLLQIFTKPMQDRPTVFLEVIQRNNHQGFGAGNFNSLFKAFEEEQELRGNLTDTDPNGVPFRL
Chain of 4-hydroxyphenylpyruvate dioxygenase (Rattus norvegicus) (P32755 whole entry): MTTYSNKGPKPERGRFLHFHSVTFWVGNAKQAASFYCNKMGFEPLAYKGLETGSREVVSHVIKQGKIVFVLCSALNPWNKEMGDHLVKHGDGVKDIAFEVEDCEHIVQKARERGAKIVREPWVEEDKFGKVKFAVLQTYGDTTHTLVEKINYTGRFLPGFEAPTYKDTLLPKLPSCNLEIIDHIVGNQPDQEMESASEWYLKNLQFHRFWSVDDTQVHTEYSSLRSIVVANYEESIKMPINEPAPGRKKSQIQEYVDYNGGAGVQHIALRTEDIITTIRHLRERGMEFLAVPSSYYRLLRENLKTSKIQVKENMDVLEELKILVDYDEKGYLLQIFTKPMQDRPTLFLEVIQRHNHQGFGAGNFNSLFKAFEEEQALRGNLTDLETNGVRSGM

SMILES: Cc1cccc2cc(C(=O)C3C(=O)CCCC3=O)c(C#N)nc12
Ki [1]: 7 to 9 nM

Ki [2]: 31 to 37 nM
SMILES: O=C1CCCC(=O)C1C(=O)COc1ccc(Cl)cc1

SMILES: O=C1CCCC(=O)C1C(=O)c1ccc(C(F)(F)F)cc1[N+](=O)[O-] [NITISINONE]
Activity [3]: >2 mM | T1/2 [4]: 53 h | Activity [5]: 0.136 mM | inhibition [6]: 50% | T1/2 [7]: 63 h | half-life [8]: 53 h | half-life [9]: 63 h | Activity [10]: 1.1 mM

IC50 [11]: 15 nM
SMILES: O=C1CCCC(OC(=O)C2CC2)=C1Cl

INH [12]: 600 nM
SMILES: Cc1c(C(=O)c2cn[nH]c2O)ccc(S(C)(=O)=O)c1C1=NOCC1

SMILES: COc1nc2c(C)cccc2cc1C(=O)C1C(=O)CC(C)CC1=O (stereo unspecified)
Ki [1]: 7 to 9 nM

Ki [2]: 31 to 37 nM
SMILES: Cc1ccccc1OCC(=O)C1C(=O)CCCC1=O

IC50 [11]: 28 nM
SMILES: O=C1CCCC(OC(=O)C2CC2)=C1Br

Kd [13]: 6 nM | T1/2 [14]: 2 h
SMILES: CS(=O)(=O)c1cc(C(F)(F)F)ccc1C(=O)C(C#N)C(=O)C1CC1 (stereo unspecified)

SMILES: Cc1cccc2cc(C(=O)C3C(=O)CC(C)CC3=O)c(C#N)nc12 (stereo unspecified)
Ki [1]: 7 to 9 nM

SMILES: CS(=O)(=O)c1ccc(C(=O)C2C(=O)CCCC2=O)c(Cl)c1 [SULCOTRIONE]
inhibition (INH) [15]: 96% | inhibition (INH) [16]: 43 - 175% | inhibition (INH) [17]: 29 - 46%

SMILES: O=C1CCCC(=O)C1C(=O)COc1ccccc1Cl
Ki [2]: 31 to 37 nM

inhibition [18]: 7%
SMILES: CC1(C)CC(=O)C(C(=O)c2ccc([N+](=O)[O-])cc2Cl)C(=O)C1
Activity [19]: > 1 mM

SMILES: Cc1nc2c(C)cccc2cc1C(=O)C1C(=O)CCCC1=O
Ki [1]: 7 to 9 nM

Ki [2]: 31 to 37 nM
SMILES: O=C1CCCC(=O)C1C(=O)COc1ccc([N+](=O)[O-])cc1

SMILES: CS(=O)(=O)c1ccc(C(=O)C2C(=O)CCCC2=O)c(Cl)c1COCC(F)(F)F [TEMBOTRIONE]
Ki [2]: 13 nM

IC50 [20]: 73000 nM
SMILES: O=C1C[C@@H](c2ccccc2)Oc2cc(O)cc(O)c21 [PINOCEMBRIN]

SMILES: Cc1c(O)c(C(=O)CCc2ccccc2)c2c(c1O)[C@@H]1C3=C(O[C@]1(C(C)C)O2)C(C)(C)C(=O)C(C)(C)C3=O
IC50 [21]: 400 nM | IC50 [22]: 300 nM

SMILES: COc1nc2c(C)cccc2cc1C(=O)C1C(=O)CCCC1=O
Ki [1]: 7 to 9 nM

SMILES: CCn1c(=O)n(-c2ccccc2C)c(=O)c2cc(C(=O)C3C(=O)CCCC3=O)ccc21
Ki [1]: 5 nM

SMILES: CS(=O)(=O)c1ccc(C(=O)C2C(=O)CCCC2=O)c([N+](=O)[O-])c1 [MESOTRIONE]
inhibition [23]: 14% | Activity [24]: <0.5 mM | half-life [25]: 1 h | half-life [26]: 1 h

SMILES: CCCCCCCCCC(=O)C1C(=O)C(C)(C)C(=O)C(C)(C)C1=O
IC50 [27]: 19 nM

IC50 [11]: 126000 nM
SMILES: O=C1CCCC(=O)C1Cc1ccccc1[N+](=O)[O-]

SMILES: CC(=O)C1=C(O)C=C2Oc3c(C(C)=O)c(O)c(C)c(O)c3[C@@]2(C)C1=O [(+)-USNIC ACID]
IC50 [20]: 70 nM

IC50 [28]: 10000 nM
SMILES: O=C(O)C(O)(O)C(F)c1ccccc1 (stereo unspecified)

SMILES: Cc1nc2c(C)cccc2cc1C(=O)C1C(=O)CC(C)CC1=O (stereo unspecified)
Ki [1]: 7 to 9 nM

IC50 [11]: 700 nM
SMILES: O=C1CCCCC1C(=O)c1ccccc1[N+](=O)[O-] (stereo unspecified)

SMILES: Cc1cc(C2C(=O)C(C(=O)c3ccc(Cl)cc3)C(=O)CC2(C)C)on1 (stereo unspecified)
Activity [19]: > 1 mM

IC50 [27]: 11800 nM
SMILES: CC(C)CC(=O)C1C(=O)C(C)(C)C(=O)C(C)(C)C1=O

SMILES: Cc1c(C(=O)c2cnn(C)c2O)ccc(S(C)(=O)=O)c1C1=NOCC1
INH [12]: 23 nM

SMILES: CC1(C)C(=O)C(C(=O)CCc2ccccc2)C(=O)C(C)(C)C1=O
IC50 [27]: 750 nM
